Source: US20250282799A1, “SUBSTITUTED PYRIDO[4,3-d]PYRIMIDINES AS KRAS MODULATORS” (Alterome Therapeutics, Inc., priority 2023, published 2025)

These compounds were tested on KRAS G12V dependent lung adenocarcinoma cell line, NCI-H441 (assay: Cellular pERK (Thr202/Tyr204) FRET/HTRF assay). Details: Homo sapiens, NCI-H441, cellular pERK (Thr202/Tyr204) HTRF, NCI-H441 cells.
Assay type: cell-based
Procedure, shortened: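 NCI-H441 cells (KRAS G12V) were seeded and grown overnight at 37 °C, 5% CO2, then treated with compound in DMSO for 1 hr. Lysates were probed with a Eu3+-cryptate/d2 antibody sandwich against pERK1/2 Thr202/Tyr204 and read by HTRF at 665 nm; IC50 from curve fitting.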
`[2H]C([2H])([2H])Oc1c(F)c(F)c(F)c2cc(N)cc(-c3ncc4c(N5CCOC[C@H]6[C@H](F)[C@H]65)nc(OC[C@@]56CCCN5C/C(=C/F)C6)nc4c3F)c12` [Example 132, 6,7,8-trifluoro-4-(8-fluoro-4-((1S,7S,8S)-8-fluoro-5-oxa-2-azabicyclo[5.1.0]octan-2-yl)-2-(((S,E)-2-(fluoromethylene)tetrahydro-1H-pyrrolizin-7a(5H)-yl)methoxy)pyrido[4,3-d]pyrimidin-7-yl)-5-(methoxy-d3)naphthalen-2-amine] showed an IC50 of under 50 nM.
With `[2H]C([2H])(F)Oc1c(F)ccc2cccc(-c3ncc4c(N5CCCC[C@H]6[C@H](F)[C@H]65)nc(OC[C@]56CC(=C(F)F)CN5CCC65CC5)nc4c3F)c12` [Example 413, (R)-6′-(difluoromethylene)-7a′-(((8-fluoro-7-(7-fluoro-8-(fluoromethoxy-d2)naphthalen-1-yl)-4-((1S,7R,8S)-8-fluoro-2-azabicyclo[5.1.0]octan-2-yl)pyrido[4,3-d]pyrimidin-2-yl)oxy)methyl)hexahydrospiro [cyclopropane-1,1′-pyrrolizine]] the IC50 was 50 to 500 nM.
`[2H]C([2H])(Oc1nc(N2CCCC[C@H]3[C@H](F)[C@H]32)c2cnc(-c3cc(N)cc4c(F)cc(F)c(C#C)c34)c(F)c2n1)[C@@]12CCCN1C[C@H](F)C2` [Example 96, 5-ethynyl-6,8-difluoro-4-(8-fluoro-4-((1S,7R,8S)-8-fluoro-2-azabicyclo[5.1.0]octan-2-yl)-2-(((2R,7aS)-2-fluorotetrahydro-1H-pyrrolizin-7a(5H)-yl)methoxy-d2)pyrido[4,3-d]pyrimidin-7-yl)naphthalen-2-amine] showed an IC50 of under 50 nM.
`C#Cc1c(F)ccc2cc(N)cc(-c3ncc4c(N5CCOC[C@H]6[C@H](F)[C@H]65)nc(OC[C@]56CC7(CC7)CN5CCC65CC5)nc4c3F)c12` [Example 206, 4-(2-(((R)-Dihydro-5′H-dispiro[cyclopropane-1,1′-pyrrolizine-6′,1″-cyclopropan]-7a′(7′H)-yl)methoxy)-8-fluoro-4-((1S,7S,8S)-8-fluoro-5-oxa-2-azabicyclo[5.1.0]octan-2-yl)pyrido[4,3-d]pyrimidin-7-yl)-5-ethynyl-6-fluoronaphthalen-2-amine] showed an IC50 of under 50 nM.
In the case of `[2H]C([2H])(Oc1nc(N2CCOC[C@H]3[C@H](F)[C@H]32)c2cnc(-c3cccc4cccc(C#C)c34)c(F)c2n1)[C@@]12CCCN1C[C@H](F)C2` [Example 319, (1S,7S,8S)-2-(7-(8-ethynylnaphthalen-1-yl)-8-fluoro-2-(((2R,7aS)-2-fluorotetrahydro-1H-pyrrolizin-7a(5H)-yl)methoxy-d2)pyrido[4,3-d]pyrimidin-4-yl)-8-fluoro-5-oxa-2-azabicyclo[5.1.0]octane], the IC50 is reported as under 50 nM.
`[2H]C([2H])(Oc1nc(N2CCCC[C@H]3[C@H](F)[C@H]32)c2cnc(-c3cccc4c(F)c(F)c(F)c(C#C)c34)c(F)c2n1)[C@@]12CCCN1C[C@H](F)C2` [Example 111, 7-(8-ethynyl-5,6,7-trifluoronaphthalen-1-yl)-8-fluoro-4-((1S,7R,8S)-8-fluoro-2-azabicyclo[5.1.0]octan-2-yl)-2-(((2R,7aS)-2-fluorotetrahydro-1H-pyrrolizin-7a(5H)-yl)methoxy-d2)pyrido[4,3-d]pyrimidine] gave an IC50 of 500 to 10000 nM.
Work on `C#Cc1c(F)ccc2cc(N)cc(-c3ncc4c(N5CCOC[C@H]6[C@H](F)[C@H]65)nc(OC[C@]56CC(=C)CN5CCC65CC5)nc4c3F)c12` [Example 171, 5-Ethynyl-6-fluoro-4-(8-fluoro-4-((1S,7S,8S)-8-fluoro-5-oxa-2-azabicyclo[5.1.0]octan-2-yl)-2-(((R)-6′-methylenetetrahydrospiro[cyclopropane-1,1′-pyrrolizin]-7a′(5′H)-yl)methoxy)pyrido[4,3-d]pyrimidin-7-yl)naphthalen-2-amine] yielded an IC50 of under 50 nM.
Compound `[2H]C1([2H])CC2(CC2)[C@]2(C([2H])([2H])Oc3nc(N4CCOC[C@H]5[C@H](F)[C@H]54)c4cnc(-c5cc(N)cc6ccc(F)c(C#C)c56)c(F)c4n3)C[C@@]([2H])(F)CN12` (single isomer, unassigned) [Example 205] has an IC50 of under 50 nM.
`[2H]C([2H])(Oc1nc(N2CCOC[C@H]3[C@H](F)[C@H]32)c2cnc(-c3cc(O)c(F)c(C)c3C(F)(F)F)c(F)c2n1)[C@@]12CCCN1C[C@H](F)C2` [Example 330, 2-fluoro-5-(8-fluoro-4-((1S,7S,8S)-8-fluoro-5-oxa-2-azabicyclo[5.1.0]octan-2-yl)-2-(((2R,7aS)-2-fluorotetrahydro-1H-pyrrolizin-7a(5H)-yl)methoxy-d2)pyrido[4,3-d]pyrimidin-7-yl)-3-methyl-4-(trifluoromethyl)phenol] was tested, and the IC50 was 50 to 500 nM.
Work on `[2H]C([2H])(Oc1nc(N2CCC=C[C@@H]3[C@@H](F)[C@@H]32)c2cnc(-c3cc(N)cc4cc(F)c(F)c(C#C)c34)c(F)c2n1)[C@@]12CCCN1C[C@H](F)C2` [Example 99, 5-ethynyl-6,7-difluoro-4-(8-fluoro-4-((1R,7S,8R)-8-fluoro-2-azabicyclo[5.1.0]oct-5-en-2-yl)-2-(((2R,7aS)-2-fluorotetrahydro-1H-pyrrolizin-7a(5H)-yl)methoxy-d2)pyrido[4,3-d]pyrimidin-7-yl)naphthalen-2-amine] yielded an IC50 of under 50 nM.
`[2H]C([2H])(Oc1nc(N2CCOC[C@@H]3[C@@H](F)[C@@H]32)c2cc(F)c(-c3cc(N)c(F)c(C)c3C(F)(F)F)c(F)c2n1)[C@@]12CCCN1C[C@H](F)C2` [Example 178, 5-(6,8-difluoro-4-((1R,7R,8R)-8-fluoro-5-oxa-2-azabicyclo[5.1.0]octan-2-yl)-2-(((2R,7aS)-2-fluorotetrahydro-1H-pyrrolizin-7a(5H)-yl)methoxy-d2)quinazolin-7-yl)-2-fluoro-3-methyl-4-(trifluoromethyl)aniline] showed an IC50 of 500 to 10000 nM.
`C#Cc1c(F)ccc2cc(N)cc(-c3ncc4c(N5CCOC[C@H]6[C@H](F)[C@H]65)nc(OC[C@@]56CCCN5C/C(=C/F)C6)nc4c3F)c12` [Example 161, 5-Ethynyl-6-fluoro-4-(8-fluoro-4-((1S,7S,8S)-8-fluoro-5-oxa-2-azabicyclo[5.1.0]octan-2-yl)-2-(((S,E)-2-(fluoromethylene)tetrahydro-1H-pyrrolizin-7a(5H)-yl)methoxy)pyrido[4,3-d]pyrimidin-7-yl)naphthalen-2-amine] gave an IC50 of under 50 nM.
`[2H]C([2H])(Oc1nc(N2CCCC[C@H]3[C@H](F)[C@H]32)c2cnc(-c3cc(N)cc4ccc(Cl)c(C#C)c34)c(F)c2n1)[C@@]12CCCN1[C@H](C)[C@H](F)C2` [Example 416, 6-Chloro-5-ethynyl-4-(8-fluoro-2-(((2R,3R,7aS)-2-fluoro-3-methyltetrahydro-1H-pyrrolizin-7a(5H)-yl)methoxy-d2)-4-((1S,7R,8S)-8-fluoro-2-azabicyclo[5.1.0]octan-2-yl)pyrido[4,3-d]pyrimidin-7-yl)naphthalen-2-amine] showed an IC50 of under 50 nM.

Same assay, conditions: Homo sapiens, NCI-H441, cellular pERK HTRF, NCI-H441 (KRAS G12V) cells
`[2H]C([2H])(Oc1nc(N2CCCC[C@H]3[C@H](F)[C@H]32)c2cnc(-c3cc(O)cc4ccc(F)c(C#C)c34)c(C)c2n1)[C@@]12CCCN1[C@H](C)[C@H](F)C2` [Example 473, 5-ethynyl-6-fluoro-4-(2-(((2R,3R,7aS)-2-fluoro-3-methyltetrahydro-1H-pyrrolizin-7a(5H)-yl)methoxy-d2)-4-((1S,7R,8S)-8-fluoro-2-azabicyclo[5.1.0]octan-2-yl)-8-methylpyrido[4,3-d]pyrimidin-7-yl)naphthalen-2-ol] was tested, and the IC50 was under 50 nM.
Compound `[2H]C([2H])(Oc1nc(N2CCOC[C@H]3[C@H](F)[C@H]32)c2cnc(-c3cc(O)cc4ccc(F)c(C#C)c34)c(C)c2n1)[C@@]12CCCN1CC(=C)C2` [Example 446, 5-Ethynyl-6-fluoro-4-(4-((1S,7S,8S)-8-fluoro-5-oxa-2-azabicyclo[5.1.0]octan-2-yl)-8-methyl-2-(((S)-2-methylenetetrahydro-1H-pyrrolizin-7a(5H)-yl)methoxy-d2)pyrido[4,3-d]pyrimidin-7-yl)naphthalen-2-ol] has an IC50 of under 50 nM.

Same assay, conditions: Homo sapiens, NCI-H441, pERK HTRF, NCI-H441 cells (KRAS G12V)
`C#Cc1c(F)ccc2cc(O)cc(-c3ncc4c(N5CCCC[C@H]6C[C@H]65)nc(OC[C@@]56CCCN5C[C@H](F)C6)nc4c3F)c12` [Example 2, 4-(4-((1R,7S)-2-azabicyclo[5.1.0]octan-2-yl)-8-fluoro-2-(((2R,7aS)-2-fluorotetrahydro-1H-pyrrolizin-7a(5H)-yl)methoxy)pyrido[4,3-d]pyrimidin-7-yl)-5-ethynyl-6-fluoronaphthalen-2-ol] showed an IC50 of under 50 nM.
In the case of `[2H]C([2H])(Oc1nc(N2CCCC[C@@H]3C[C@@H]32)c2cnc(-c3cc(N)cc4cc(F)c(F)c(C#C)c34)c(F)c2n1)[C@@]12CCCN1C[C@H](F)C2` [Example 7, 4-(4-((1S,7R)-2-Azabicyclo[5.1.0]octan-2-yl)-8-fluoro-2-(((2R,7aS)-2-fluorotetrahydro-1H-pyrrolizin-7a(5H)-yl)methoxy-d2)pyrido[4,3-d]pyrimidin-7-yl)-5-ethynyl-6,7-difluoronaphthalen-2-amine], the IC50 is reported as 500 to 10000 nM.
For `[2H]C([2H])(Oc1nc(N2CCCCC[C@@H]3C[C@@H]32)c2cnc(-c3cc(N)cc4cc(F)c(F)c(C#C)c34)c(F)c2n1)[C@@]12CCCN1C[C@H](F)C2` [Example 55, 4-(4-((1S,8R)-2-azabicyclo[6.1.0]nonan-2-yl)-8-fluoro-2-(((2R,7aS)-2-fluorotetrahydro-1H-pyrrolizin-7a(5H)-yl)methoxy-d2)pyrido[4,3-d]pyrimidin-7-yl)-5-ethynyl-6,7-difluoronaphthalen-2-amine], the IC50 was 500 to 10000 nM.
